Literature values, collected in patent US11090329B2, “Method and composition for treating gastro-esophageal disorders” (priority 2012, dated 2021).

Tested on: esophagitis caused by chemo-radiotherapy
Settings: patients with advanced stage III non-small-cell lung cancer

O=C(O[C@@H]1Cc2c(O)cc(O)cc2O[C@@H]1c1cc(O)c(O)c(O)c1)c1cc(O)c(O)c(O)c1 [EGCG, epigallocatechin gallate A]
esophagitis caused by chemo-radiotherapy: reduce esophagitis
